Results as given in patent publication US20220112208A1, “COMPOUNDS WITH ANTIINFLAMMATORY ACTIVITY AND METHODS OF USE THEREOF” (King Abdullah University of Science and Technology, priority 2020, published 2022).
Where two headings read alike, the source gives them in different places.

Key:
[1] = test system: NO production in LPS-treated RAW 264.7 cells; experiment: Inhibition of NO production (Griess reaction) in LPS-treated RAW 264.7 macrophages; format: cell-based, mouse
Description: (§1) Mouse macrophage cell line RAW 264.7 was cultured in DMEM medium (cat. #21885-025, Gibco) supplemented with 10% heat inactivated fetal bovine serum (cat. #10270-106, Gibco) and 1% penicillin-streptomycin (cat. #15070-063, Gibco). Cells were cultured in 37° C. and 5% CO2. Each compound was diluted in Carbowax™ 400+10% ethanol (cat. #1.00983, Sigma), used also as control solvent. Final concentration in culture was 0.1% v/v carbowax and 0.01% v/v ethanol. RAW 264.7 macrophages were activated using 100 ng/mL lipopolysaccharide (LPS) (L2630, Sigma). In IC50 determination experiments, macrophages were pre-treated for 1 h with the respective compound prior to LPS stimulation.
30×104 RAW 264.7 mouse macrophages were plated in 24-well plates over-night with 0.5 mL complete medium. Cells were pretreated for 1 h with the respected compound concentration and then stimulated with 100 ng/mL LPS (L2630, Sigma) for 48 h. The amount of nitrite, an oxidative product of NO, was measured in culture supernatant of each sample using the Griess reaction. 100 μL of supernatant was mixed with 100 μl of sulfanilamide solution (1% sulfanilamide in 5% H3PO4) and incubated for 5 min at room temperature. Then, 100 μL of NED solution (0.1% N-1-naphtylethylenediamine dihydrochlorite in H2O) was added and the absorbance was measured in an automated microplate reader (Infinate 200 PRO, Tecan) at 540 nm. Nitrite concentration was calculated using a sodium nitrite standard curve. All incubations were performed in the dark.
(§2) All data are presented as mean±SEM and as percentage in case of IC50 evaluation. Statistical analysis was performed using Graphpad Prism 7.0. D'Agostino & Pearson, Shapiro Wilk and KS tests were used to evaluate normality. In case of normality, one-way ANOVA was performed, whereas in all other cases the non-parametric Kruskal-Wallis test was used. Differences with a P value <0.05 are considered significant (*indicates P<0.05, **indicates P<0.01, ***indicates P<0.001).

[2] = test system: RAW 264.7 macrophages; experiment: MTT cytotoxicity / proliferation assay in RAW 264.7 macrophages; format: cell-based, mouse; conditions: for Significant cytotoxicity at concentrations above: RAW 264.7, values given in nM
Description: as §1
3.5×103 RAW 264.7 mouse macrophages were seeded in 96-well plate and cultured overnight. Cells were subsequently treated with the respective compound concentration and incubated for 24, 48 and 72 h. Number of cells was measured prior to treatment and used as normalisation control. Thiazolyl Blue Tetrazolium Bromide (MTT) (A2231.001, Applichem) was added to the cells in a final concentration of 0.5 mg/mL and then cells were incubated at 37° C. and 5% CO2 for 4 h. The supernatant was discarded and cells were lysed with 2-propanol (33539, Honeywell) with 0.4% HCl (30721, Sigma). The absorbance of each sample was measured in an automated microplate reader (Infinite 200 PRO, Tecan) at 600 nm. The average OD of each treated sample was normalized to the OD of the control sample and statistical analysis was performed using Graphpad Prism 7.0.
as §2

[3] = Mus musculus, RAW264.7, LPS (100 ng/mL)-treated RAW 264.7, 1 h pre-treatment, 48 h, vs Carbowax 400 control, mean ± SEM, read-out: IC50 Inhibition of NO production
[4] = Mus musculus, RAW264.7, LPS-treated RAW 264.7, values given in nM, read-out: IC50 for inhibition of NO production (anti-inflammatory activity)
[5] = MTT, RAW 264.7, 72 h of treatment, concentration above which cytotoxic

Structure (SMILES)	IC50 [1, 3] [nM]	IC50 [1, 4] [nM]	Cytotoxicity (at 72 h) [2, 5] [µM]	Significant cytotoxicity at concentrations above ([2]; MTT)	other results
C#C/C=C\C[C@@H]1O[C@@H]2C[C@@H](Br)[C@H](CC)O[C@@H]2C[C@@H]1Br [Compound a4, Thuwalenyne A]					Anti-inflammatory activity (in words) ([1]; LPS-treated RAW 264.7, all concentrations tested): did not exhibit anti-inflammatory activity; Cytotoxicity (in words) [2]: did not exhibit anti-inflammatory activity or cytotoxicity; Cytotoxicity (at 72 h) ([2]; mouse, 72 h): >62.5 µM
CC[C@@H]1O[C@@H]2C/C=C\C[C@H](C=C=CBr)O[C@@H]2CC1Br (stereo partly shown) [Compound a3, Thuwalallene C]	4180				
CC[C@@H]1O[C@@H]2C[C@H]3O[C@H]3C[C@H](C=C=CBr)O[C@@H]2C[C@H]1Br [Compound a1, Thuwalallene A]					IC50 ([1]; LPS (100 ng/mL)-treated RAW 264.7, 1 h pre-treatment, 48 h, vs Carbowax 400 control, mean ± SEM, read-out: IC50 Inhibition of NO production): 26000 nM
CC(=O)OC(C)(C)C1CC[C@](C)([C@@H](O)CC[C@](C)(O)[C@H]2CC[C@H]3O[C@@H]([C@]4(C)CC[C@@H](Br)C(C)(C)O4)CC[C@]3(C)O2)O1 (stereo partly shown) [a11, 23-acetyl-thyrsiferol]	2.63	2.63	>0.01	above 10 nM	
CC(C)(O)C1CC[C@](C)([C@@H](O)CC[C@](C)(O)[C@H]2CC[C@H]3O[C@@H]([C@]4(C)CC[C@@H](Br)C(C)(C)O4)CC[C@]3(C)O2)O1 (stereo partly shown) [Compound a10, thyrsiferol]	4.39	4.39	>0.1	above 100 nM	
